Experiment: Inhibition of CCR5 by cell-cell fusion inhibition assay

| IC50 [nM] | SMILES |
| --- | --- |
| 99 | Cc1ncnc(C)c1C(=O)N1C[C@H]2CN(CCC(c3ccccc3)C3CCN(S(=O)(=O)C(C)C)CC3)C[C@H]2C1 (stereo partly drawn) [(4,6-dimethylpyrimidin-5-yl)((3aR,6aS)-5-(3-(1-(isopropylsulfonyl)piperidin-4-yl)-3-phenylpropyl)hexahydropyrrolo[3,4-c]pyrrol-2(1H)-yl)methanone] |
| > 5000 | Cc1ncnc(C)c1C(=O)N1C[C@H]2CN(CCC(c3ccccc3)C3CN(CC(F)(F)F)C3)C[C@H]2C1 (stereo partly drawn) [(4,6-dimethylpyrimidin-5-yl)((3aR,6aS)-5-(3-phenyl-3-(1-(2,2,2-trifluoroethyl)azetidin-3-yl)propyl)hexahydropyrrolo[3,4-c]pyrrol-2(1H)-yl)methanone] |
| 34 | Cc1ncnc(C)c1C(=O)N1C[C@H]2CN(CCC(c3ccccc3)C3CCN(CC(F)(F)F)CC3)C[C@H]2C1 (stereo partly drawn) [(4,6-dimethylpyrimidin-5-yl)((3aR,6aS)-5-(3-phenyl-3-(1-(2,2,2-trifluoroethyl)piperidin-4-yl)propyl)hexahydropyrrolo[3,4-c]pyrrol-2(1H)-yl)methanone] |
| 11 | Cc1ncnc(C)c1C(=O)N1C[C@H]2CN(CCC(c3cccc(F)c3)C3CCN(CC(F)F)CC3)C[C@H]2C1 (stereo partly drawn) [((3aR,6aS)-5-(3-(1-(2,2-difluoroethyl)piperidin-4-yl)-3-(3-fluorophenyl)propyl)hexahydropyrrolo[3,4-c]pyrrol-2(1H)-yl)(4,6-dimethylpyrimidin-5-yl)methanone] |
| 137 | Cc1ncnc(C)c1C(=O)N1C[C@H]2CN(CCC(c3ccccc3)C3CCN(CC(F)F)CC3)C[C@H]2C1 (stereo partly drawn) [((3aR,6aS)-5-(3-(1-(2,2-difluoroethyl)piperidin-4-yl)-3-phenylpropyl)hexahydropyrrolo[3,4-c]pyrrol-2(1H)-yl)(4,6-dimethylpyrimidin-5-yl)methanone] |
| 2830 | Cc1ncnc(C)c1C(=O)N1C[C@H]2CN(CCC(c3ccccc3)C3CN(C(=O)C4CCCC4)C3)C[C@H]2C1 (stereo partly drawn) [((3aR,6aS)-5-(3-(1-(cyclopentanecarbonyl)azetidin-3-yl)-3-phenylpropyl)hexahydropyrrolo[3,4-c]pyrrol-2(1H)-yl)(4,6-dimethylpyrimidin-5-yl)methanone] |
| 63 | Cc1ncnc(C)c1C(=O)N1C[C@H]2CN(CCC(c3cc(F)cc(F)c3)C3CN(S(=O)(=O)C4CC4)C3)C[C@H]2C1 (stereo partly drawn) [((3aR,6aS)-5-(3-(1-(cyclopropylsulfonyl)azetidin-3-yl)-3-(3,5-difluorophenyl)propyl)hexahydropyrrolo[3,4-c]pyrrol-2(1H)-yl)(4,6-dimethylpyrimidin-5-yl)methanone] |
| 30 | Cc1ncnc(C)c1C(=O)N1C[C@H]2CN(CCC(c3cccc(F)c3)C3CN(S(=O)(=O)C4CC4)C3)C[C@H]2C1 (stereo partly drawn) [((3aR,6aS)-5-(3-(1-(cyclopropylsulfonyl)azetidin-3-yl)-3-(3-fluorophenyl)propyl)hexahydropyrrolo[3,4-c]pyrrol-2(1H)-yl)(4,6-dimethylpyrimidin-5-yl)methanone] |
| 313 | Cc1ncnc(C)c1C(=O)N1C[C@H]2CN(CCC(c3ccccc3)C3CN(S(=O)(=O)C4CC4)C3)C[C@H]2C1 (stereo partly drawn) [((3aR,6aS)-5-(3-(1-(cyclopropylsulfonyl)azetidin-3-yl)-3-phenylpropyl)hexahydropyrrolo[3,4-c]pyrrol-2(1H)-yl)(4,6-dimethylpyrimidin-5-yl)methanone] |
| 744 | COC(=O)N1CCC(C(CCN2C[C@@H]3CN(C(=O)c4c(C)ncnc4C)C[C@@H]3C2)c2ccccc2)CC1 (stereo partly drawn) [methyl 4-(3-((3aR,6aS)-5-(4,6-dimethylpyrimidine-5-carbonyl)hexahydropyrrolo[3,4-c]pyrrol-2(1H)-yl)-1-phenylpropyl)piperidine-1-carboxylate] |

Continued, compound first:

| SMILES | IC50 [nM] |
| --- | --- |
| Cc1ncnc(C)c1C(=O)N1C[C@H]2CN(CCC(c3ccccc3)C3CN(C(=O)CC(C)C)C3)C[C@H]2C1 (stereo partly drawn) [1-(3-(3-((3aR,6aS)-5-(4,6-dimethylpyrimidine-5-carbonyl)hexahydropyrrolo[3,4-c]pyrrol-2(1H)-yl)-1-phenylpropyl)azetidin-1-yl)-3-methylbutan-1-one] | > 5000 |
| Cc1ncnc(C)c1C(=O)N1C[C@H]2CN(CCC(c3ccccc3)C3CCN(C(=O)C(C)C)CC3)C[C@H]2C1 (stereo partly drawn) [1-(4-(3-((3aR,6aS)-5-(4,6-dimethylpyrimidine-5-carbonyl)hexahydropyrrolo[3,4-c]pyrrol-2(1H)-yl)-1-phenylpropyl)piperidin-1-yl)-2-methylpropan-1-one] | > 5000 |
| Cc1ncnc(C)c1C(=O)N1C[C@H]2CN(CCC(c3ccccc3)C3CCN(C(=O)CC(C)C)CC3)C[C@H]2C1 (stereo partly drawn) [1-(4-(3-((3aR,6aS)-5-(4,6-dimethylpyrimidine-5-carbonyl)hexahydropyrrolo[3,4-c]pyrrol-2(1H)-yl)-1-phenylpropyl)piperidin-1-yl)-3-methylbutan-1-one] | 2820 |
| CCC(=O)N1CCC(C(CCN2C[C@@H]3CN(C(=O)c4c(C)ncnc4C)C[C@@H]3C2)c2ccccc2)CC1 (stereo partly drawn) [1-(4-(3-((3aR,6aS)-5-(4,6-dimethylpyrimidine-5-carbonyl)hexahydropyrrolo[3,4-c]pyrrol-2(1H)-yl)-1-phenylpropyl)piperidin-1-yl)propan-1-one] | > 5000 |
| Cc1cc(=O)oc(C)c1C(=O)N1C[C@H]2CN(CCC(c3ccccc3)C3CCN(S(C)(=O)=O)CC3)C[C@H]2C1 (stereo partly drawn) [4,6-dimethyl-5-((3aR,6aS)-5-(3-(1-(methylsulfonyl)piperidin-4-yl)-3-phenylpropyl)octahydropyrrolo[3,4-c]pyrrole-2-carbonyl)-2H-pyran-2-one] | 8 |
| Cc1ncnc(C)c1C(=O)N1C[C@H]2CN(CCC(c3ccccc3)C3CCN(C(=O)NC(C)C)CC3)C[C@H]2C1 (stereo partly drawn) [4-(3-((3aR,6aS)-5-(4,6-dimethylpyrimidine-5-carbonyl)hexahydropyrrolo[3,4-c]pyrrol-2(1H)-yl)-1-phenylpropyl)-N-isopropylpiperidine-1-carboxamide] | > 5000 |
| Cc1ncnc(C)c1C(=O)N1C[C@H]2CN(CCC(c3ccccc3)C3CN(S(=O)(=O)C(C)C)C3)C[C@H]2C1 (stereo partly drawn) [(4,6-dimethylpyrimidin-5-yl)((3aR,6aS)-5-(3-(1-(isopropylsulfonyl)azetidin-3-yl)-3-phenylpropyl)hexahydropyrrolo[3,4-c]pyrrol-2(1H)-yl)methanone] | 93 |
